Data on two compounds can be found in the NIST ThermoML archive (doi:10.1016/j.jct.2016.12.007).

A short description of data set [1]: refractive index (Na D-line) (dimensionless); wn = mass fraction of the nth substance listed. Conditions: 101.3 kPa, Liquid, Standard Abbe refractometry.
Data set [2] in a line: wn = mass fraction of the nth substance listed. Conditions: 101.3 kPa, Liquid, Vibrating tube method.

Numbers after ± are expanded uncertainties.

As to `[Cl-].[Rb+]` [rubidium chloride] + O, the refractive index in data set [1] (288.15 K, w1 = 0.4695) is recorded as 1.3874 ± 0.0005; in data set [1] (298.15 K, w1 = 0.4841) it was 1.3883 ± 0.0005; in data set [1] (308.15 K, w1 = 0.5041), 1.3894 ± 0.0005. Also, the mass density in data set [2] (288.15 K, w1 = 0.4695) is 1480.4 ± 4.3 kg/m3; in data set [2] (298.15 K, w1 = 0.4841) it was 1500.3 ± 4.3 kg/m3; in data set [2] (308.15 K, w1 = 0.5041), 1517.5 ± 4.3 kg/m3.
On to `[Cl-].[Na+]` [sodium chloride] + O, for which the refractive index is reported as 1.3811 ± 0.0005 in data set [1] (288.15 K, w1 = 0.2622); 1.3795 ± 0.0005 in data set [1] (298.15 K, w1 = 0.2625); 1.3781 ± 0.0005 in data set [1] (308.15 K, w1 = 0.2666). Besides, the mass density is given as 1201 ± 4.2 kg/m3 in data set [2] (288.15 K, w1 = 0.2622); 1197.8 ± 4.2 kg/m3 in data set [2] (298.15 K, w1 = 0.2625); 1193.6 ± 4.2 kg/m3 in data set [2] (308.15 K, w1 = 0.2666).

Usually refractive index stands for a measure of how strongly the sample bends light. By mass density is commonly meant the mass of a sample divided by its volume.
